The source of these data is ChEMBL document CHEMBL4616617, “Two Decades of Successful SAR-Grounded Stories of the Novel Bacterial Topoisomerase Inhibitors (NBTIs)” (J Med Chem, 2020).

Each structure is given as a SMILES string.

The nature of test [1]: Inhibition of Staphylococcus aureus N-terminal His6-tagged DNA gyrase B expressed in Escherichia coli BL21(DE3) cells using relaxed pBR322 DNA as substrate incubated for 1 hr by agarose gel electrophoresis method.
In a further test the target is Topoisomerase IV (Staphylococcus aureus, UniProt P0C1S7+P0C1U9). The experiment in a line: Inhibition of Staphylococcus aureus RN4220 DNA topoisomerase 4 expressed in Escherichia coli BL21(DE3) cells using supercoiled pBR322 DNA as substrate by agarose gel electrophoresis method.
Chain of Topoisomerase IV (P0C1U9 whole entry): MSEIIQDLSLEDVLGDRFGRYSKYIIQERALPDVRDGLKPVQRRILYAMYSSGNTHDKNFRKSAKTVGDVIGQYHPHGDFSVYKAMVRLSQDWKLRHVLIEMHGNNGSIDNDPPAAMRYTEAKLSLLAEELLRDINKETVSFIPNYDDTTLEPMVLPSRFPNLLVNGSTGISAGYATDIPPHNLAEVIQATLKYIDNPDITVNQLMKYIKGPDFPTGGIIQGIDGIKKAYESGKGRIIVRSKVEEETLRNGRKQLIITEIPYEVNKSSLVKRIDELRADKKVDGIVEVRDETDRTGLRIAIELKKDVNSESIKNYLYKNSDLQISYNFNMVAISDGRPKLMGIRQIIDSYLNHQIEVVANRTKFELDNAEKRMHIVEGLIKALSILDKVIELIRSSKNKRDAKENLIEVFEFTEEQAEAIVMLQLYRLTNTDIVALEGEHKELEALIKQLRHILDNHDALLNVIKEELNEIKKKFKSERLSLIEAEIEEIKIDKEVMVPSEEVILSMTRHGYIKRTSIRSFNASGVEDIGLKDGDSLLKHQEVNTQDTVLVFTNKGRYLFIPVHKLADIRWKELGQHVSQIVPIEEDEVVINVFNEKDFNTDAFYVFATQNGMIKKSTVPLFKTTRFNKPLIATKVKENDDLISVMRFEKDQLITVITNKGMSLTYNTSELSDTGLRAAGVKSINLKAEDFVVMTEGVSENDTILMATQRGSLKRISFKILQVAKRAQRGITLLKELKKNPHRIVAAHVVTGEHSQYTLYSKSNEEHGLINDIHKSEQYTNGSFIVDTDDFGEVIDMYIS
Chain of Topoisomerase IV (P0C1S7 whole entry): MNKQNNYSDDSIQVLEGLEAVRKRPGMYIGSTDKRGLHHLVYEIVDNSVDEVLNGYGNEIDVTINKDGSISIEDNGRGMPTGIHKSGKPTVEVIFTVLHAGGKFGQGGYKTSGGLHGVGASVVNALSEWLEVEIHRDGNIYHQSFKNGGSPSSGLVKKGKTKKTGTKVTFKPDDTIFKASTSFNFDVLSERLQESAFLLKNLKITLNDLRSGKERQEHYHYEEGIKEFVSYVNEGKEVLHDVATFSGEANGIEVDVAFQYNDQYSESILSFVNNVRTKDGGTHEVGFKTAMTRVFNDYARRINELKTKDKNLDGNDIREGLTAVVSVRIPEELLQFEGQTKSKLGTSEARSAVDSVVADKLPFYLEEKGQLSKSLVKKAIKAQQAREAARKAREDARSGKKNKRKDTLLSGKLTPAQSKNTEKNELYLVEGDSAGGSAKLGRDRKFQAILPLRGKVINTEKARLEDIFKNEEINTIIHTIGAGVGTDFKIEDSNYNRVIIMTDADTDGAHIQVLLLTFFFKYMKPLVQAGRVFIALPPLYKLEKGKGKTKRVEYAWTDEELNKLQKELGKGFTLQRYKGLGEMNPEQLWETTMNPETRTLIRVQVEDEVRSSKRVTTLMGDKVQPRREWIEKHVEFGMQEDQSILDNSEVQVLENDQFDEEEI
Test [2] has as its system Staphylococcus aureus. Put plainly: Antibacterial activity against Staphylococcus aureus assessed as reduction in microbial growth after 18 hrs by NCCLS based method. It is filed as functional.
A short description of test [3]: Inhibition of Escherichia coli DNA topoisomerase 4 using supercoiled pBR322 DNA as substrate by agarose gel electrophoresis method.
The test system of test [4] is Staphylococcus aureus. Put plainly: Antibacterial activity against Staphylococcus aureus A798 assessed as reduction in microbial growth by CLSI based broth microdilution method. It is filed as functional. A general note: Dilution methods test growth across graded concentrations, often in twofold steps.
For test [5], the system named is Escherichia coli. The experiment in a line: Antibacterial activity against Escherichia coli ATCC 25922 assessed as reduction in microbial growth by CLSI based broth microdilution method. It is filed as functional.
Test [6] relates to Staphylococcus aureus. The experiment in a line: Antibacterial activity against methicillin-resistant Staphylococcus aureus assessed as reduction in microbial growth by CLSI based broth microdilution method. It is filed as functional.
Test [7] concerns Escherichia coli. Put plainly: Antibacterial activity against levofloxacin-nonsusceptible Escherichia coli assessed as reduction in microbial growth by CLSI based broth microdilution method. The format is functional.
The subject of test [8] is Streptococcus pneumoniae. The experiment in a line: Antibacterial activity against levofloxacin-nonsusceptible Streptococcus pneumoniae assessed as reduction in microbial growth by CLSI based broth microdilution method. The format is functional.
The next test deals with Haemophilus influenzae. Put plainly: Antibacterial activity against Haemophilus influenzae assessed as reduction in microbial growth by CLSI based broth microdilution method. The format is functional.
The subject of test [9] is Staphylococcus aureus. Put plainly: Antibacterial activity against Staphylococcus aureus assessed as reduction in microbial growth by CLSI based broth microdilution method. It is filed as functional.
The test system of test [10] is Escherichia coli. Put plainly: Antibacterial activity against levofloxacin-susceptible Escherichia coli assessed as reduction in microbial growth by CLSI based broth microdilution method. It is filed as functional.
In test [11] the test system is Escherichia coli. Put plainly: Antibacterial activity against Escherichia coli assessed as reduction in microbial growth by CLSI based broth microdilution method. The format is functional.
The test system of test [12] is Streptococcus pneumoniae. Put plainly: Antibacterial activity against penicillin-intermediate Streptococcus pneumoniae assessed as reduction in microbial growth by CLSI based broth microdilution method. It is filed as functional.
The test system of another test is Neisseria gonorrhoeae. The experiment in a line: Antibacterial activity against Neisseria gonorrhoeae assessed as reduction in microbial growth by agar dilution method. It is filed as functional. Background: In agar dilution the substance is mixed into plates at graded concentrations.
In test [13] the test system is Streptococcus pneumoniae. The experiment in a line: Antibacterial activity against penicillin-resistant Streptococcus pneumoniae assessed as reduction in microbial growth by CLSI based broth microdilution method. The format is functional.
The subject of test [14] is Streptococcus pneumoniae. Put plainly: Antibacterial activity against penicillin-susceptible Streptococcus pneumoniae assessed as reduction in microbial growth by CLSI based broth microdilution method. The format is functional.
The subject of test [15] is Staphylococcus aureus. Put plainly: Antibacterial activity against levofloxacin-resistant Staphylococcus aureus assessed as reduction in microbial growth by CLSI based broth microdilution method. It is filed as functional.
In test [16] the test system is Streptococcus pneumoniae. The experiment in a line: Antibacterial activity against Streptococcus pneumoniae assessed as reduction in microbial growth by CLSI based broth microdilution method. The format is functional.
Test [17] concerns Staphylococcus aureus. The experiment in a line: Antibacterial activity against methicillin-sensitive Staphylococcus aureus assessed as reduction in microbial growth by CLSI based broth microdilution method. It is filed as functional.

Take `COc1ccc2ncc(F)c([C@@H](O)CC[C@@H]3CCN(CCSc4cccs4)C[C@@H]3C(=O)O)c2c1`: the IC50 (usually the concentration at which inhibition is half-maximal) in [1] came to 1000 nM; on Topoisomerase IV it was 300 nM; in test [3], 200 nM. The MIC (as a rule, the lowest concentration found to suppress growth) in the test on Staphylococcus aureus [2] was in the range of 0.12 to 1 µg/mL.

Take `CN1CC(Oc2cccc(-c3cccc(CNCC[C@@H]4CN(c5ccc6c(n5)NC(=O)CO6)C(=O)O4)c3)n2)C1`: the MIC with Staphylococcus aureus [4] and in the test with Escherichia coli [5] was 0.25 µg/mL throughout.

On to `O=c1ccc2ncc(=O)n3c2n1C[C@H]3CN1CCC(NCc2cc3c(cn2)OCCC3)CC1` [GEPOTIDACIN], for which the MIC90 was 0.5 µg/mL in the test with Staphylococcus aureus [6]; 2 µg/mL in the test with Escherichia coli [7]; 0.25 µg/mL in the test with Streptococcus pneumoniae [8]; 1 µg/mL in the test on Haemophilus influenzae; 0.5 µg/mL in the test with Staphylococcus aureus [9]; 2 µg/mL in the test with Escherichia coli [10]. The MIC90 in the test on Escherichia coli [11] stood at 2 µg/mL; with Streptococcus pneumoniae [12], 0.25 µg/mL; in the test with Neisseria gonorrhoeae it was 0.25 µg/mL; in the test on Streptococcus pneumoniae [13], 0.25 µg/mL; in the test on Streptococcus pneumoniae [14], 0.25 µg/mL; in the test with Staphylococcus aureus [15], 0.5 µg/mL. For the same compound, the results for the MIC90 with Streptococcus pneumoniae [16] and in the test with Staphylococcus aureus [17] were 0.25 µg/mL and 0.5 µg/mL, respectively.
